Values of other authors as cited in patent US20050181516A1, “Bioequivalence determination using expression profiling” (priority 2002, published 2005).

Experiments:
macrophilin FKBP12 = macrophilin FKBP12 (Homo sapiens, UniProt P62942); conditions: relative to FK506; cited from earlier work
[1] = system: atopic dermatitis or psoriasis; conditions: topical formulation; cited from earlier work
contact dermatitis = conditions: topical application and oral route; cited from earlier work

Chain of macrophilin FKBP12 (P62942 whole entry): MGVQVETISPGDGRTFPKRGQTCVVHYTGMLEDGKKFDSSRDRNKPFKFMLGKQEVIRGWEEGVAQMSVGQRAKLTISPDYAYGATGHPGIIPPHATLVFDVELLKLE

CC[C@@H]1/C=C(\C)C[C@H](C)C[C@H](OC)[C@H]2O[C@@](O)(C(=O)C(=O)N3CCCC[C@H]3C(=O)O[C@H](/C(C)=C/[C@@H]3CC[C@H](Cl)[C@H](OC)C3)[C@H](C)[C@@H](O)CC1=O)[C@H](C)C[C@@H]2OC [ASM981, 33-Epichloro-33-desoxy-ascomycin]
affinity for macrophilin FKBP12, fold lower than FK506 (macrophilin FKBP12): 3 fold
outcome of clinical trials in atopic dermatitis or psoriasis [1]: clinical regression
efficacy in animal models of contact dermatitis (contact dermatitis): effective
